Starred links: 1 amine or outer side, 2 acyl side, 3 side chain; linkers in the order of their positions; H or OH if unused. Positions of bridges follow the written chain, without caps; N, C: chain ends. Non-standard residues stand in square brackets, D forms with d. Residues, ends and D or L forms follow the SMILES beside them. Groups on a side chain read outwards from the residue. *: point of attachment. C18 diacid = O=C(O)CCCCCCCCCCCCCCCCC(=O)*; Dip = N[C@H](C(=O)O)C(c1ccccc1)c1ccccc1; γGlu = O=C(O)[C@H](CCC(=O)[*:2])N[*:1]; Palmitoyl = CCCCCCCCCCCCCCCC(=O)*; β3hF = N[C@H](CC(=O)O)Cc1ccccc1; Isovaleryl = CC(C)CC(=O)*; AEEA = NCCOCCOCC(=O)O; Ahx = NCCCCCC(=O)O
Assays:
[1] = target: ferroportin endogenously expressed on T47D cells (HTB 133, ATCC) (human) (UniProt Q9NP59); assay: cell-based or functional assay
[2] = target: T1, ferroportin (Homo sapiens, UniProt Q9NP59); assay: T47D cell-based ferroportin internalization assay in presence of mouse serum albumin (MSA), AF647 detection peptide, flow cytometry; parameters: a human breast carcinoma adherent cell line which endogenously expresses ferroportin; host or cells: T47D; conditions: second Table 6D, T47D/MSA data; with mouse serum albumin
T1 sequence (Q9NP59 1-571): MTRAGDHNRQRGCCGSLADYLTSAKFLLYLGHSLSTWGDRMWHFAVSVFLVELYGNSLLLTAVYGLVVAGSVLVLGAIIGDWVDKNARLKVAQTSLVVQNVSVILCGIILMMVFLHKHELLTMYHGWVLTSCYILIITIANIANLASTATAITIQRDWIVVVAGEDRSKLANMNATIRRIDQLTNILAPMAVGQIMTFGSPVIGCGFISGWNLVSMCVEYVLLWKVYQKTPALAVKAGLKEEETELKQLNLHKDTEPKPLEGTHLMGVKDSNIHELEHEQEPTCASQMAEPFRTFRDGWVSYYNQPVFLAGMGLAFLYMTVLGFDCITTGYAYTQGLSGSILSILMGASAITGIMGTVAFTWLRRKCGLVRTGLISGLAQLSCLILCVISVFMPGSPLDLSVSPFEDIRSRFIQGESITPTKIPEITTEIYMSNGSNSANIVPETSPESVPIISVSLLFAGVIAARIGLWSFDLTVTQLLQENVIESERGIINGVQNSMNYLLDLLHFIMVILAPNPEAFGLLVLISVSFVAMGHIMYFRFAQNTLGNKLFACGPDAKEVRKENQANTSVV
Description: The potency of the peptides in causing ferroportin internalization was evaluated in a T47D cell-based assay. […] In this internalization assay, the potency of the test peptides was evaluated in presence of serum albumin which is the main protein component in the blood. T47D cells were maintained in RPMI media (containing required amount of fetal bovine serum) and regularly sub-cultured. […] The test peptide dilution series were allowed to incubate at room temperature for 30 min. Then the media was aspirated from the 96-well cell plate and test peptide dilution series were added. After 1 hr incubation, the media with test peptides was aspirated out and A1F647-conjugated detection peptide was added at fixed concentration of 200 nM. […] The cells were washed again after a 2 hr incubation in preparation for flow cytometry analysis. The Median Fluorescence Intensity (MFI) of the AF647-positive population was measured (after removing dead cells and non-singlets from the analysis). The MFI values were used to generate a dose-response curve and obtain IC50 potencies for the test peptides. The IC50 potencies were calculated by using 4-parameter non-linear fitting function in Graphpad Prism (Table 6D).

[3] = target: T2, human ferroportin (SLC40A1) fused in frame with GFP, stably expressed in HEK293 cells (human) (UniProt Q9NP59); assay: cell-based or functional assay
T2 sequence (looked up): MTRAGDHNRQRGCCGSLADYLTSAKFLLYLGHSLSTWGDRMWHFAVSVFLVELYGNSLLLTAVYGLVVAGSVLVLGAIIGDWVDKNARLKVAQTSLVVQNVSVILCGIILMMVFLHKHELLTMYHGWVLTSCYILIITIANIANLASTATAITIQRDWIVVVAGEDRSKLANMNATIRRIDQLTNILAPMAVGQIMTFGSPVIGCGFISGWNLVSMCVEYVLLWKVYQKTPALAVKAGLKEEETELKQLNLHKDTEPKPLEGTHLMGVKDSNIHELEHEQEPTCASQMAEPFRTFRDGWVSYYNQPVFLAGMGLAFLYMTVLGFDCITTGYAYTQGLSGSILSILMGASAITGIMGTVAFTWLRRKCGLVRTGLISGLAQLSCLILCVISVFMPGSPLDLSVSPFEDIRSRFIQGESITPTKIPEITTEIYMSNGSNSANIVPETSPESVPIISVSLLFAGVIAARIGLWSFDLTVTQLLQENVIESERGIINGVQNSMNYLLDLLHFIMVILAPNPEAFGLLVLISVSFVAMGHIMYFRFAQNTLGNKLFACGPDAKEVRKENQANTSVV

[4] = target: T1, ferroportin; assay: FPN activity assay: internalization/degradation of ferroportin-GFP in stably transfected HEK293 cells (loss of GFP fluorescence); format: cell-based; conditions: Table 6A; read-out: FPN EC50
Description: Following internalization, the ferroporin protein is degraded.
A retro inverse peptide is a peptide with a reversed sequence in all D amino acids. An example is that Hy-Glu-Thr-His-NH2 becomes Hy-DHis-DThr-DGlu-NH2. The EC50 of these reference compounds for ferroportin internalization/degradation was determined according to the FPN activity assay described above. These peptides served as control standards.

IC50 [2] [nM]	Compound	other results
	Isovaleric Acid-Dap-T-H-[Dpa]-P-A-I-E-[bhPhe]-[Lys(Ahx_Palm)]-R-NH2 (peptide)	T47D MSA IC50 [1]: 36.4 nM
13.3	CCCCCCCCCCCCCCCC(=O)N[C@@H](CCC(=O)NCCCC[C@H](NC(=O)[C@@H](NC(=O)[C@H](C)NC(=O)[C@@H]1CCCN1C(=O)[C@@H](NC(=O)[C@H](Cc1c[nH]cn1)NC(=O)[C@@H](NC(=O)[C@H](CCC(=O)O)NC(=O)CC(C)C)[C@@H](C)O)C(c1ccccc1)c1ccccc1)[C@@H](C)CC)C(=O)N[C@H](CC(=O)N[C@H](CCCCN)C(N)=O)Cc1ccccc1)C(=O)O [compound 131] (Isovaleryl-ETH[Dip]PAIK([γGlu-Palmitoyl])[β3hF][dK]-NH2)	
	Isovaleric Acid-K-T-H-[Dpa]-P-E-[bhPhe]-[Lys(Ahx_Palm)]-NH2 (peptide)	T47D MSA IC50 [1]: 15.6 nM
	RI-Mini Hepcidin: Hy-DPhe-DIle-DCys-DIle-DPro-DPhe-DHis-DThr-DAsp-NH2 (peptide)	Potency EC50 (nM) [3]: > 10000 nM
31.2	CCCCCCCCCCCCCCCC(=O)NCCCCCC(=O)NCCCC[C@H](NC(=O)[C@@H]1CCC(=O)NCCCC[C@H](NC(=O)CC(C)C)C(=O)N[C@@H]([C@@H](C)O)C(=O)N[C@@H](Cc2c[nH]cn2)C(=O)N[C@@H](C(c2ccccc2)c2ccccc2)C(=O)N2CCC[C@H]2C(=O)N[C@@H](C)C(=O)N[C@@H]([C@@H](C)CC)C(=O)N1)C(N)=O [compound 309] (Isovaleryl-KTH[Dip]PAIEK([Ahx-Palmitoyl])-NH2; lactam 1-8)	
143	CC[C@H](C)[C@H](NC(=O)[C@H](C)NC(=O)[C@@H]1CCCN1C(=O)[C@@H](NC(=O)[C@H](Cc1c[nH]cn1)NC(=O)[C@@H](NC(=O)[C@H](CCC(=O)O)NC(=O)CC(C)C)[C@@H](C)O)C(c1ccccc1)c1ccccc1)C(=O)N[C@@H](CCCCNC(=O)COCCOCCNC(=O)COCCOCCNC(=O)CCCCCNC(=O)CCCCCCCCCCCCCCCCC(=O)O)C(=O)N[C@H](CC(N)=O)Cc1ccccc1 [compound 76] (Isovaleryl-ETH[Dip]PAIK([AEEA-AEEA-Ahx-C18 diacid])[β3hF]-NH2)	DC50 [4]: 150 nM
11.4	CCCCCCCCCCCCCCCC(=O)NCCCCCC(=O)NCCCC[C@H](NC(=O)[C@@H](NC(=O)[C@H](C)NC(=O)[C@@H]1CCCN1C(=O)[C@H](Cc1ccccc1)NC(=O)[C@H](Cc1c[nH]cn1)NC(=O)[C@@H](NC(=O)[C@H](CCC(=O)O)NC(=O)CC(C)C)[C@@H](C)O)[C@@H](C)CC)C(=O)N[C@@H](Cc1ccccc1)C(=O)N[C@@H](CCC(=O)O)C(=O)N1CCC[C@H]1C(=O)N[C@@H](CCCNC(=N)N)C(=O)N[C@@H](CO)C(=O)N[C@@H](CCCCN)C(=O)NCC(=O)N[C@@H](C)C(=O)N[C@@H](CCCCN)C(N)=O [compound 81] (Isovaleryl-ETHFPAIK([Ahx-Palmitoyl])FEPRSKGAK-NH2)	
10.6	CCCCCCCCCCCCCCCC(=O)NCCCCCC(=O)NCCCC[C@H](NC(=O)[C@@H]1CCCCNC(=O)CC[C@H](NC(=O)CC(C)C)C(=O)N[C@@H]([C@@H](C)O)C(=O)N[C@@H](Cc2c[nH]cn2)C(=O)N[C@@H](C(c2ccccc2)c2ccccc2)C(=O)N2CCC[C@H]2C(=O)N[C@@H](C)C(=O)N[C@@H]([C@@H](C)CC)C(=O)N1)C(N)=O [compound 314] (Isovaleryl-ETH[Dip]PAIKK([Ahx-Palmitoyl])-NH2; lactam 1-8)	
